We go through one compound from US20220380331A1, “TREATMENT OF CONDITIONS OF THE NERVOUS SYSTEM” (priority 2019, published 2022).

For one data set, the system named is mice. The settings on record: 6.8-12.8 g/kg in mice continuously for 6 months.
For data set [1], the system named is perineuronal nets (PNNs) in the ventral horn. The data set is described as follows: Chronic PNNi treatment, immunohistochemistry of PNNs in the ventral horn 12 weeks post-injury. As to conditions: T4-6 sections. The class given is in vivo, rat. On the procedure:
FIG. 15. Chronic PNNi treatment preferentially reduces expression of perineuronal nets (PNNs), labelled by key PNN components, in the ventral horn (VH). Rat spinal cord sections (T4-6) obtained at 12 weeks post-injury were stained and intensity was analysed in the VH. […] A transcardial perfusion (Gage et al., 2012) was then performed using sodium phosphate buffer (PB; 0.12 M sodium phosphate monobasic; 0.1 M NaOH; pH 7.4) followed by 4% paraformaldehyde (PFA; in PB; pH 7.4) for tissue fixation. The brain and spinal cord were dissected out, post-fixed in PFA (4%; 4° C.) overnight and cryoprotected in 30% sucrose solution (30% v/w sucrose in PB; 4° C.) until tissue saturation. The left brain hemisphere and appropriate spinal cord segments were excised and frozen in optimum temperature medium (OCT; Leica FSC 22 Frozen Section Media; Leica Biosystems) before storage at -80° C. until sectioning. […] Total number of neurones and the number of neurones surrounded by PNNs were quantified by two independent researchers, blinded to the study. Results were analysed with one-way ANOVA for statistical significance. […] Rat spinal cord sections (T4-6) obtained at 12 weeks post-injury were stained and intensity was analysed in the VH.

The subject of data set [2] is HL sensory function after spinal cord injury. Put plainly: Von Frey assay (50% withdrawal threshold) in spinal cord injured rats. The class given is in vivo, rat.
Protocol: Changes to HL sensory function was assessed using von Frey methodologies to look for hyperalgesia and neuropathic pain. Four animals at a time were acclimatised to Perspex cages with a wire mesh bottom (FIG. 3) for approximately fifteen to twenty minutes before the test began and until general movement and grooming activities stopped. Von Frey filaments (Touch Test™ Sensory Evaluator Kit of 20; #39337500; Leica Biosystems, Milton Keynes, England FIG. 3C) were depressed through the mesh-bottomed cage against the more sensitive plantar arch of the HL footpads where withdrawal of the limb was counted as a positive result. Flinching was also seen as a positive response whereas walking was an ambiguous response requiring retesting after an appropriate delay. The left hindpaw and right hindpaw of all animals were performed in series to provide a sufficient interval between stimuli.
Data set [3] has as its system locomotor function of intact rats. Put plainly: BBB open field locomotor testing in intact rats after ten days of oral PNNi. The class given is in vivo, rat. The settings on record: short-term treatment. On the procedure:
HL locomotor ability was assessed at various time points throughout the acute SCI paradigm using the BBB HL locomotor scale. BBB testing was carried out using an open locomotor field (custom-built Perspex O-ring: diameter 80 cm, height 30 cm) where animals were placed for a duration of 4 minutes (FIG. 2). Each BBB test was simultaneously assessed by two individuals. The resulting scores were pooled and averaged for objectivity. BBB testing assesses HL motor function using a ranking scale from 0-21. Animals are ranked into three broad categories based on their BBB score: early phase (score of 0-7) presenting little to no limb movement; intermediate stage (score of 8-13) with bouts of uncoordinated stepping; and the late stage (score of 14-21) presenting with FL and HL coordination and stability (Basso et al., 1995). Following injury, BBBs were then carried out at 1 DPI to confirm injury and then weekly from 7 DPI. If animals also received rehabilitative training, BBBs were carried out beforehand.

The test system of a further data set is mouse. The settings on record: in vivo, po; cited from earlier work.
In data set [4] the test system is locomotor function of intact rats. The settings on record: female, Lister Hooded, rat, in vivo, 10 days. From the text:
Firstly, the inventors questioned whether PNN removal throughout the CNS would affect normal sensation and motor functions. To investigate this, adult female Lister Hooded rats (n=11) were given ten days of oral PNNi treatment and subjected to routine behavioural testing.

The next data set concerns spinal cord injury. The data set is described as follows: 8 weeks PNNi with sustained rehabilitation after spinal cord injury, hindlimb motor recovery. Format: in vivo, rat. The settings on record: terminated 2-3 weeks before end, continued rehabilitative training. From the text: FIG. […]): Limiting PNNi administration alongside sustained rehabilitation allows further hindlimb (HL) motor recovery. […] Bar graph showing the percentage of animals that were able to achieve forelimb-hindlimb (FL-HL) coordination at 9 weeks post-injury (WPI) at the end of PNNi administration, 10 and 12 WPI (B). […] (For groups, n=10 and 9 for 8 week PNNi and 8 week PNNi+T, respectively. Statistics, A, C-E: two-way mixed factorial ANOVA; significance levels: *p<0.05 **p<0.01 and ***p<0.001. A, C, D: Error bars are ±SEM.) Training was comprised of distributed practice quadrupedal interval treadmill training to provide task-specific rehabilitation. The first session commenced 7 days post injury (DPI) following locomotor behavioural tests described below. Daily training consisted of 10 minutes on the treadmill, followed by a 10 minute break before a final 10 minute session on the treadmill. Rats were trained five times a week at the maximal speed that they could maintain consecutive stepping for each 10-minute session on the treadmill. In order to enhance plasticity for effective functional recovery, we administer PNNi for 8 weeks in combination with 11 weeks of rehabilitation. Limiting PNNi administration alongside sustained rehabilitation allows further hindlimb (HL) motor but not sensory recovery (FIG. 12). […]

For `Cc1cc(=O)oc2cc(O)ccc12` [PNNi, 4-methylumbelliferone], in the data set with mice, the “lethality and adverse signs” value is “did not show any lethality”. For the same compound, the “number of PNNs labelled by ACAN and WFA in the ventral horn” value in data set [1] is given as “partially decreases number of PNNs”. The “L-R average 50% withdrawal threshold, plantar hindpaws” value in data set [2] (8 week PNNi with or without training, 9 and 12 WPI) is listed as “did not show hyperalgesia”. In data set [2] (treatment groups after T9 contusion injury, n=11), the “tactile sensitivity using von Frey hair test” value was “did not show any difference”. Moreover, the “BBB hindlimb scale score” value in data set [3] turned out to be 21. For the same compound, the lethal dose with mouse is 7500 mg/kg. In data set [4], the FL correct steps is 94.4±0.56%, the FL missed steps amounted to 1.13±0.24%, the FL slipped steps is 4.35±0.54% and the “HL correct stepping on the horizontal ladder” value is reported as “approximately 92.7±0.82%”. In addition, in data set [4], the “HL misses on the horizontal ladder” value is on record as 1.92±0.41% and the “HL slips on the horizontal ladder” value was 5.43±0.70%. The “hindlimb (HL) motor recovery” value in the data set on spinal cord injury was “a further HL improvement was observed”.
